The term CC50 denotes the concentration at which the toxic effect on the cells reaches its halfway point. High values mean lower toxicity to the cells, low ones greater toxicity to the cells. A word on the EC50: it is the concentration giving half of the maximal effect.

Counter-ions that a name gives are not always drawn.

Series [1] can be described thus: Cell cytotoxicity test: protection of HT22 cells against glutamate toxicity (EC50) and cytotoxicity of the compounds (CC50), MTT. It counts as cell-based, mouse. Conditions: mouse, HT22 cells (mouse hippocampal neuron). Here is the method:
(§1) HT22 cells (mouse hippocampal neuron, Salk Institute and KRIBB) were plated in a 96-well plate at a density of 3×10^3 cells/well for 16 hrs before treatment. The cells were treated with five millimolar glutamate and various concentrations of the inventive compounds and incubated for 24 hrs in a growth media (DMEM with 10% FBS and 1% penicillin streptomycin). Then, the cells were treated with 3-(4,5-dimethylthiazol-2-yl)-2,5-diphenyltetrazolium bromide (MTT, Sigma®) for 4 hrs and absorbance of each well was measured with a plate reader at a wavelength of 450 nm. [Da-Qing, et. al., Anti-oxidant and anti-inflammatory activities of macelignan in murine hippocampal cell line and primary culture of rat microglia cells, BBRC, 2005, 331, 1264-1269].
(§2) In Table 1, EC50 is neuroprotective effect against glutamate toxicity and CC50 is cytotoxicity of the compounds. The EC50 values were statistically analyzed using Prizm® (GraphPad Software Inc., San Diego, Calif., USA).

The subject of series [2] is HT22 cells (mouse hippocampal neuron). The series is described as above. It counts as cell-based. To be noted: Mus musculus, HT-22, five millimolar glutamate, 24 hrs, read-out: EC50 (neuroprotective effect against glutamate toxicity). How it is done: as §1, §2

With `CNc1ccccc1Nc1cc2c(cc1O)[C@]13CCCC[C@@H]1[C@H](C2)NCC3` [Example 127, (+)-3-Hydroxy-2-(2-(methylamino)phenylamino)morphinan TFA salt], it took 1.3 µM to reach half-maximal cytotoxicity in series [1] (CC50 at 24 h). The EC50 in series [2] came to 0.0621 µM. The like results for `CCCc1cc2c(cc1O)[C@]13CCCC[C@@H]1[C@H](C2)NCC3` [Example 82, (+)-3-Hydroxy-2-propylmorphinan TFA salt] were, in that order, 28.2 µM and 1.02 µM. Take `Oc1c(F)cc2c(c1Br)[C@]13CCCC[C@@H]1[C@H](C2)NCC3` [Example 3, (+)-4-Bromo-2-fluoro-3-hydroxymorphinan TFA salt]: the EC50 in series [2] amounted to 19.8 µM. With `Oc1c(Cl)cc2c(c1Br)[C@]13CCCC[C@@H]1[C@H](C2)NCC3` [Example 8, (+)-4-Bromo-2-chloro-3-hydroxymorphinan TFA salt], in series [2], the EC50 amounted to 20.2 µM. On to `CCN(CC)c1ccccc1Nc1cc2c(cc1O)[C@]13CCCC[C@@H]1[C@H](C2)NCC3` [Example 129, (+)-2-(2-(Diethylamino)phenylamino)-3-hydroxymorphinan TFA salt], for which the midpoint of cytotoxicity in series [1], the CC50 at 24 h, lay at 1.6 µM. Further, the EC50 in series [2] turned out to be 0.0439 µM. The like results for `Oc1cc2c(cc1NC1CCCC1)C[C@@H]1NCC[C@]23CCCC[C@H]13` [Example 92, (+)-2-Cyclopentylamino-3-hydroxymorphinan TFA salt] were, in that order, 378 µM and 0.0927 µM.

In the case of `Oc1cc2c(cc1NC1CCCCCC1)C[C@@H]1NCC[C@]23CCCC[C@H]13` [Example 94, (+)-2-Cycloheptylamino-3-hydroxymorphinan TFA salt], the CC50 at 24 h in series [1] stood at 7.55 µM. Moreover, in series [2], the EC50 was 0.102 µM. The matching figures for `Oc1cc2c(cc1Nc1ccccc1Cl)C[C@@H]1NCC[C@]23CCCC[C@H]13` [Example 48, (+)-2-(2-Chlorophenylamino)-3-hydroxymorphinan TFA salt]: 2.7 µM and 0.0991 µM.

In turn, `CS(=O)(=O)Nc1ccccc1Nc1cc2c(cc1O)[C@]13CCCC[C@@H]1[C@H](C2)NCC3` [Example 110, (+)-3-Hydroxy-2-(2-(methanesulfonamido)phenylamino)morphinan TFA salt] registered a CC50 at 24 h in series [1] of 7.55 µM. In addition, the EC50 in series [2] was found to be 0.00453 µM. In the case of `Oc1cc2c(cc1N1CCCCC1)C[C@@H]1NCC[C@]23CCCC[C@H]13` [Example 21, (+)-3-Hydroxy-2-(piperidin-1-yl)morphinan TFA salt], the CC50 at 24 h in series [1] was found to be 63.5 µM. Also, the EC50 in series [2] was found to be 0.482 µM.

As for `Oc1cc2c(cc1-c1ccc(F)cc1)C[C@@H]1NCC[C@]23CCCC[C@H]13` [Example 77, (+)-2-(4-Fluorophenyl)-3-hydroxymorphinan TFA salt], in series [1], it took 8.3 µM to reach half-maximal cytotoxicity (CC50 at 24 h). Moreover, the EC50 in series [2] came out at 3.11 µM.

With `CCCCc1cc2c(cc1O)[C@]13CCCC[C@@H]1[C@H](C2)NCC3` [Example 83, (+)-2-Butyl-3-hydroxymorphinan TFA salt], in series [1], the CC50 at 24 h stood at 51.5 µM. Moreover, the EC50 in series [2] stood at 2.07 µM. The like results for `CCNc1ccccc1Nc1cc2c(cc1O)[C@]13CCCC[C@@H]1[C@H](C2)NCC3` [Example 130, (+)-2-(2-(Ethylamino)phenylamino)-3-hydroxymorphinan TFA salt] were, in that order, 1.6 µM and 0.0112 µM.

Consider `COc1ccc(Nc2cc3c(cc2O)[C@]24CCCC[C@@H]2[C@H](C3)NCC4)cc1OC` [Example 63, (+)-2-(3,4-Dimethoxyphenylamino)-3-hydroxymorphinan TFA salt], for which the CC50 at 24 h in series [1] came to 10.1 µM. The EC50 in series [2] amounted to 0.0289 µM. The matching figures for `Oc1cccc(Nc2cc3c(cc2O)[C@]24CCCC[C@@H]2[C@H](C3)NCC4)c1` [Example 44, (+)-3-Hydroxy-2-(3-hydroxyphenylamino)morphinan TFA salt]: 75 µM and 0.802 µM. For the compound `OCc1cc2c(cc1O)[C@]13CCCC[C@@H]1[C@H](C2)NCC3` [Example 16, (+)-3-Hydroxy-2-(hydroxymethyl)morphinan TFA salt], in series [2], the EC50 is greater than 100 µM.

Turning to `CCCCNC(=S)Nc1ccccc1Nc1cc2c(cc1O)[C@]13CCCC[C@@H]1[C@H](C2)NCC3` [Example 123, (+)-2-(2-(Butylthioureido)phenylamino)-3-hydroxymorphinan TFA salt], in series [2], the EC50 was found to be 0.459 µM. For `Oc1ccc(Nc2cc3c(cc2O)[C@]24CCCC[C@@H]2[C@H](C3)NCC4)c(O)c1` [Example 45, (+)-2-(2,4-Dihydroxyphenylamino)-3-hydroxymorphinan TFA salt], the CC50 at 24 h in series [1] is 40.9 µM. Besides, the EC50 in series [2] was found to be 0.0731 µM. The like results for `CC1(c2cc3c(cc2O)[C@]24CCCC[C@@H]2[C@H](C3)NCC4)CCCCC1` [Example 105, (+)-3-Hydroxy-2-(1-methylcyclohexyl)morphinan TFA salt] were, in that order, 2.24 µM and 0.594 µM. As to `Oc1cc2c(cc1NC1CCCCC1)C[C@@H]1NCC[C@]23CCCC[C@H]13` [Example 93, (+)-2-Cyclohexylamino-3-hydroxymorphinan TFA salt], the CC50 at 24 h in series [1] came out at 13.8 µM. In addition, in series [2], the EC50 came out at 0.0986 µM. Consider `Oc1c(Br)cc2c(c1Br)[C@]13CCCC[C@@H]1[C@H](C2)NCC3` [Example 6, (+)-2,4-Dibromo-3-hydroxymorphinan TFA salt], for which the EC50 in series [2] is 9.57 µM. On the same count and under the same terms, for `CCc1cc2c(cc1O)[C@]13CCCC[C@@H]1[C@H](C2)NCC3` [Example 84, (+)-2-Ethyl-3-hydroxymorphinan TFA salt] the value was 6.71 µM. In series [1], `Oc1cc2c(cc1Nc1cccc(Cl)c1O)C[C@@H]1NCC[C@]23CCCC[C@H]13` [Example 55, (+)-2-(3-Chloro-2-hydroxyphenylamino)-3-hydroxymorphinan TFA salt] returned a CC50 at 24 h of 9.2 µM. The EC50 in series [2] is 0.101 µM. The like results for `Oc1cc2c(cc1N1CCOCC1)C[C@@H]1NCC[C@]23CCCC[C@H]13` [Example 86, (+)-3-Hydroxy-2-morpholinomorphinan TFA salt] were, in that order, greater than 100 µM and 1.55 µM.

`Oc1cc2c(cc1Nc1ccc(Cl)c(Cl)c1)C[C@@H]1NCC[C@]23CCCC[C@H]13` [Example 65, (+)-2-(3,4-Dichlorophenylamino)-3-hydroxymorphinan TFA salt] showed a CC50 at 24 h in series [1] of 1.6 µM. Further, in series [2], the EC50 was 0.314 µM.

In series [1], `CC(=O)Nc1ccc(Nc2cc3c(cc2O)[C@]24CCCC[C@@H]2[C@H](C3)NCC4)cc1` [Example 116, TFA salt] had a CC50 at 24 h of 36.5 µM. For the same compound, the EC50 in series [2] is 2.84 µM. Turning to `Oc1cc2c(cc1F)C[C@@H]1NCC[C@]23CCCC[C@H]13` [Example 1, (+)-2-Fluoro-3-hydroxymorphinan TFA salt], the EC50 in series [2] was determined as 9.68 µM. Still for that read-out and setting: in the case of `Oc1cc2c(cc1O)[C@]13CCCC[C@@H]1[C@H](C2)NCC3` [Example 10, (+)-2,3-Dihydroxymorphinan TFA salt] it was 12.1 µM.

With `O=Cc1cc2c(cc1O)[C@]13CCCC[C@@H]1[C@H](C2)NCC3` [Example 13, (+)-2-Formyl-3-hydroxymorphinan TFA salt], the EC50 in series [2] stood at 11.6 µM. In the case of `Oc1cc2c(cc1-c1ccccc1)C[C@@H]1NCC[C@]23CCCC[C@H]13` [Example 80, (+)-3-Hydroxy-2-phenylmorphinan TFA salt], the EC50 in series [2] amounted to 9.1 µM.

Consider `Oc1cc2c(cc1I)C[C@@H]1NCC[C@]23CCCC[C@H]13` [Example 9, (+)-3-Hydroxy-2-iodomorphinan TFA salt], for which the EC50 in series [2] was 10.2 µM.

Take `Oc1ccc2c(c1Br)[C@]13CCCC[C@@H]1[C@H](C2)NCC3` [Example 7, (+)-4-Bromo-3-hydroxymorphinan TFA salt]: in series [2], the EC50 stood at 12.5 µM. Still for that read-out and setting: in the case of `COc1cc2c(cc1O)[C@]13CCCC[C@@H]1[C@H](C2)NCC3` [Example 12, (+)-3-Hydroxy-2-methoxymorphinan TFA salt] it was 24.4 µM; in that of `O=C(O)c1cc2c(cc1O)[C@]13CCCC[C@@H]1[C@H](C2)NCC3` [Example 14, ((+)-3-Hydroxymorphinan)-2-carboxylic acid TFA salt], 86.3 µM; in that of `Oc1c(F)cc2c(c1Cl)[C@]13CCCC[C@@H]1[C@H](C2)NCC3` [Example 2, (+)-4-Chloro-2-fluoro-3-hydroxymorphinan TFA salt], 50 µM. As for `CCCCOC(=O)Nc1ccccc1Nc1cc2c(cc1O)[C@]13CCCC[C@@H]1[C@H](C2)NCC3` [Example 118, (+)-2-(2-(Butoxycarbonylamino)phenylamino)-3-hydroxymorphinan TFA salt], in series [2], the EC50 stood at 0.891 µM. On the same count and under the same terms, for `Oc1c(Cl)cc2c(c1Cl)[C@]13CCCC[C@@H]1[C@H](C2)NCC3` [Example 4, (+)-2,4-Dichloro-3-hydroxymorphinan TFA salt] the value was 10.9 µM; for `Cc1cc2c(cc1O)[C@]13CCCC[C@@H]1[C@H](C2)NCC3` [Example 85, (+)-3-Hydroxy-2-methylmorphinan TFA salt], 8.39 µM. On the same count and under the same terms, for `Oc1ccc2c(c1Cl)[C@]13CCCC[C@@H]1[C@H](C2)NCC3` [Example 5, (+)-4-Chloro-3-hydroxymorphinan TFA salt] the value was 9.33 µM; for `Oc1cc2c(cc1-c1ccc(Cl)cc1)C[C@@H]1NCC[C@]23CCCC[C@H]13` [Example 74, (+)-2-(4-Chlorophenol)-3-hydroxymorphinan TFA salt], 0.796 µM.

(Values after patent US20120122848A1, “(+)-3-HYDROXYMORPHINAN DERIVATIVES AS NEUROPROTECTANTS” (GREEN CROSS CORPORATION, priority 2009, published 2012).)
